Measurements from patent US5556840A, “2',5'-phosphorothioate oligoadenylates as anitiviral agents” (Temple University - Of The Commonwealth System of Higher …, priority 1994, dated 1996).
Entries after “also recorded” stand apart in the source; their conditions may differ. Read-outs that look alike come from different tables or passages of the source.

Assays:
SVPD = experiment: Hydrolysis by SVPD (snake venom phosphodiesterase); type: in vitro ADME
Protocol: It is known that the enzyme SVPD preferentially cleaves Rp-3',5'- or 2',5'-phosphorothioate linkages from the 2'/3'-terminus. Nelson et al, J. Org. Chem. 49:2314-2317 (1984); Eppstein et al, J. Biol. Chem. 261:5999-6003 (1986); Lee et al, Biochemistry 24:551-555 (1985). SVPD hydrolysis of the chemically synthesized dimer core ARp A yielded adenosine and AMPS in a molar ratio of 1:1, respectively; the half-life was 3 hours (Table 3).
(§1) The metabolic stability of the 2,5'-phosphorothioate dimer and trimer cores is markedly greater than authentic 2-5A. The rate of hydrolysis of the trimer cores by the 3'-exonuclease SVPD is, in order of decreasing stability: ASp ARp A>ARp ARp A>>>A3. […] The 3'->'5'direction of stepwise cleavage by SVPD is blocked by an Sp configuration, preventing cleavage of the upstream adjacent phosphorothioate linkage. […] With both SVPD and 2'-PDE, the dimer cores (either ARp A or ASp A) accumulate following hydrolysis of the ARp ARp A, ASp ARp A and ARp ASp A trimer cores. Hydrolysis of the 2-5A molecule by SVPD and 2'-PDE proceeds from the 2'/3'-terminus. Therefore, introduction of the phosphorothioate group into the trimer core results in the accumulation of the ARp A or ASp A dimer cores from the 5'-terminus and the accumulation of AMPS from the 2'/3'-terminus (Table 3). With authentic A3, there is no detectable accumulation of A2 following hydrolysis by SVPD or 2'-PDE.

[1] = test system: 2'-phosphodiesterase (2'-PDE), L cell extract; experiment: Hydrolysis by 2'-phosphodiesterase in L cell extract; type: in vitro ADME
Text: The four 2,5-phosphorothioate adenylate trimer cores were further characterized by hydrolysis with the enzyme 2'-phosphodiesterase ("2'-PDE"), an exoribonuclease found in L cell extract The enzyme cleaves from the 2'/3'-terminus.
as §1

RNase L [2] = experiment: rRNA cleavage assay using L929 cell extracts (28S and 18S rRNA); type: biochemical, mouse; conditions: for concentration at which RNase L was activated to cleave 28S and 18S rRNA: L929 cell extracts, '>' = no activation at that concentration
Protocol: Activation of RNase L by 2',5'-phosphorothioate adenylate trimer cores and their 5'-monophosphates was also measured in an rRNA cleavage assay using L929 cell extracts.
The corresponding 5'-monophosphates pARp ARp A, pASp ARp A (at 10^-8 M) and pARp ASp A (at 10^-7 M) activated RNase L to cleave 28S and 18S rRNA.

[3] = test system: HIV reverse transcriptase; experiment: HIV reverse transcriptase activity; type: biochemical, HIV (HTLV-IIIB); conditions: for Percent Inhibition of HIV reverse transcriptase / Reverse Transcriptase Activity: 200 uM; for Reverse Transcriptase Activity: control 187×10^3 cpm (reactions 1-4), 273×10^3 cpm (reactions 5-13)
Protocol: HIV reverse transcriptase (RNA-dependent DNA nucleotidyl-transferase) activity was assayed by a modification of the procedure of Poiesz et al. (Poiesz, B. J., Ruscetti , F. W., Gazdar, A. F., Bunn, P. S., Minna, J. D., and Gallo, R. C., Proc. Natl. Acad. Sci. U.S.A. 77: 7415-7419 (1980)).
Cultured H-9 cells are grown at 10^6 cells/ml in RPMI-1640 medium and 20% heat-inactivated fetal calf serum. Cell suspensions are centrifuged (1000×g, 10 min.) and the supernatant is removed. Virus particles are precipitated from this cell-free supernatant to which 0.3 ml of 4M NaCl and 3.6 ml of 30% (weight/volume) polyethylene glycol are added. The suspension is placed on ice for 2 hr following centrifugation at 15,000×g for 30 min at 0° C. The precipitate is resuspended in 200 microliters of 50% glycerol (vol./vol.)/25 mM Tris-HCl (pH 7.5)/5 mM dithiothreitol/50 mM KCl/0.025% Triton X-100. Virus particles are lysed by the addition of 100 microliters of 0.9% Triton X-100/1.5M KCl. Reverse transcriptase assays are performed at 37° C. for 1 hr with 10 microliters of the lysed virus solution in a final reaction volume of 100 microliters containing: 40 mM Tris-HCl (pH 7.8), 4 mM dithiothreitol, 45 mM KCl and 2.5 micrograms of template primer [poly(A)-dT15, 0.5 micrograms/microliter] (with a signal Mg^++ concentration of 10 mM). At this time, 10 microliters of the 2',5'-phosphorothioate oligoadenylate is added to a final concentration of 200 micromolar. Reaction mixtures also contain 4 micromoles of [^3 H]dTTP. Reactions are stopped by the addition of cold 5% trichloroacetic acid and filtered through nitrocellulose discs. The discs are dried and the radioactivity bound to the discs is determined. Reverse transcriptase activity is expressed as the percent relative to a control.
The compounds were assayed in the above manner in two sets, each set having a separate set of controls. The compounds of reactions 1-4 were assayed against control #1, which was 187×10^3 cpm. The compounds used in reactions 5-13 were assayed against control #2, which was 273×10^3 cpm.

[4] = test system: tobacco mosaic virus (TMV); experiment: TMV replication in intact Nicotiana glutinosa plants (local lesions); type: in vivo; conditions: for Percent TMV Inhibition: 2 × 10^-5 M in infecting solution, 48 hr after infection, half-leaves of N. glutinosa
Protocol: Carborundum (400 mesh) was sprinkled lightly onto leaves. Solutions containing 0.2 micrograms per ml of TMV and 2×10^-5 M 2',5'-phosphorothioate oligoadenylate in phosphate buffer were applied onto half-leaves of N. glutinosa with either a gloved finger or with a pipettor. The remaining half-leaves were controls (inoculated with the buffer solution containing TMV, but no active compound). The infection was allowed to proceed 48 h under continuous illumination of about 1500 Lx at which time local virus lesions appeared. Inhibition of TMV replication was calculated as the percent of local lesions produced in 2',5'-phosphorothioate oligoadenylate-treated half-leaves compared to control half-leaves.
^4 Inhibition of TMV replication was detected 48 hr after infection
and was calculated as the percent of local lesions produced in treated
halfleaves of N. glutinosa compared to control halfleaves.

serum phosphodiesterases = experiment: Hydrolysis by serum phosphodiesterases
RNase L [5] = experiment: Core-cellulose assay: activation of partially-purified RNase L to hydrolyze poly(U)-3'-[32P]pCp; type: biochemical, mouse
Protocol: FIG. 1B represents the results of a core-cellulose assay indicating the ability of the 2',5'-phosphorothioate adenylate trimer cores and 5'-monophosphates to activate partially-purified RNase L from L929 cell extracts to hydrolyze the substrate polY(U)-3'-[^32 P]pCp. Activation of RNase L was determined by conversion of poly (U )-3'-[^32 P]pCp to acid-soluble fragments. 100% represents 30,000 cpm of labelled poly(U)-3'-[^32 P]pCp bound to glass fiber filters. The curves are labelled in the same manner as FIG. 1A.
The 2',5'-phosphorothioate cores, with one exception, have the correct stereoconfiguration to activate RNase L. The activation of partially-purified RNase L by the 2',5'-phosphorothioates was measured according to the core-cellulose assay of Silverman, Analyt. Biochem. 144:450-460 (1985) which relies on hydrolysis of the substrate poly(U)-3-[^32 P]pCp. […] (FIG. 1B) The order of activation of the trimer cores and the corresponding 5'-monophosphates is: RpRp>SpRp>RpSp (FIG. 1B).

RNase L [6] = experiment: Activation or inhibition of RNase L, general statements without assay named; type: biochemical
phosphodiesterases = experiment: Metabolic stability, general statements; type: in vitro ADME

Compound | half life, hydrolysis by SVPD (SVPD) [h] | hydrolysis by SVPD (result in words) (SVPD) | concentration at which RNase L was activated to cleave 28S and 18S rRNA (RNase L [2]) | Percent Inhibition of HIV reverse transcriptase [3] [%] | Reverse Transcriptase Activity [3] | Percent TMV Inhibition [4] [%] | hydrolysis by L cell extract / 2'-PDE (result in words) [1] | effect on RNase L activation (result in words) (RNase L [6]) | hydrolysis by serum phosphodiesterases (result in words) (serum phosphodiesterases) | also measured
(Rp)-P-Thioadenylyl-(2'-5')-(Rp)-P-thioadenylyl-(2'-5')-adenosine [Compound 9A] | 1 | hydrolysis by SVPD to yield AMPS plus ARp A | 10^-5 M | 18 | 224 10^3 cpm | 57 | – | – | – | half life, hydrolysis by L cell extract [1]: 18 h; half life, hydrolysis by serum phosphodiesterases (serum phosphodiesterases): 8 h
(Sp)-P-Thioadenylyl-(2'-5')-(Sp)-P-thioadenylyl-(2'-5')-adenosine [Compound 10B] | – | not substrates for SVPD; also recorded: not cleaved | > 10^-4 M | 20 | 219 10^3 cpm | 80 | not cleaved | selectively inactivates RNase L | not cleaved | hydrolysis by SVPD (result in words) (SVPD; listed as ASp ASp A): not substrates of SVPD; hydrolysis by L cell extract / 2'-PDE (result in words) ([1]; listed as ASp ASp A): not cleaved by L-cell extract; inhibition of RNase L activation, core-cellulose assay (result in words) (RNase L [5]): inhibit RNase L activation; concentration up to which RNase L was not activated, core-cellulose assay (RNase L [5]; poly(U)-3'-[32P]pCp substrate, not activated at the concentration): > 10^-3 M; inhibition of RNase L activation, rRNA cleavage assay (result in words) (RNase L [2]): inhibit RNase L activation
5'-O-Phosphoryl-(Rp)-thioadenylyl-(2'-5')-(Sp)-thioadenylyl-(2'-5')-adenosine [pARp ASp A] | – | – | 10^-7 M | 25 | 206 10^3 cpm | 15 | – | relatively metabolically stable and highly efficient activator for RNase L | – | –
(Sp)-P-Thioadenylyl-(2'-5')-(Rp)-P-thioadenylyl-(2'-5')-adenosine [Compound 9B] | 8 | yielded ASp A and AMPS | 10^-5 M | 6 | 258 10^3 cpm | 33 | – | – | not cleaved | half life, hydrolysis by L cell extract [1]: 15 h
(Sp)-P-thioadenylyl-(2'-5')-(Sp)-P-thioadenylyl-(2'-5')-(Sp)-P-thioadenylyl-(2'-5')-adenosine [ASp ASp ASp A] | – | – | – | 45 | 149 10^3 cpm | 70 | – | – | – | –
(Rp)-P-thioadenylyl-(2'-5')-(Sp)-P-thioadenylyl-(2'-5')-(Sp)-P-thioadenylyl-(2'-5')-adenosine [ARp ASp ASp A] | – | – | – | 46 | 147 10^3 cpm | 80 | – | – | – | –
5'-O-Phosphoryl-(Sp)-thioadenylyl-(2'-5')-(Sp)-thioadenylyl-(2'-5')-adenosine [pASp ASp A] | – | – | > 10^-5 M | 15 | 232 10^3 cpm | 40 | – | selectively inhibits activation of RNase L at physiological concentrations; also recorded: metabolically stable inhibitor of RNase L; also recorded: most effective inhibitor of RNase L reported to date | – | inhibition of HIV reverse transcriptase (result in words) [3]: inhibit HIV reverse transcriptase activity and tobacco mosaic virus replication; inhibition of TMV replication (result in words) ([4]; in vivo): inhibit HIV reverse transcriptase activity and tobacco mosaic virus replication; metabolic stability (result in words) (phosphodiesterases): metabolically stable to specific and non-specific phosphodiesterases
5'-O-Phosphoryl-(Sp)-thioadenylyl-(2'-5')-(Rp)-thioadenylyl-(2'-5')-adenosine [pASp ARp A] | – | – | 10^-8 M | 16 | 230 10^3 cpm | 23 | – | – | – | –
Nc1ncnc2c1ncn2[C@@H]1O[C@H](CO[P@](O)(=S)O[C@@H]2[C@H](O)[C@@H](CO)O[C@H]2n2cnc3c(N)ncnc32)[C@@H](O)[C@H]1O [Compound 6B, P-Thioadenylyl-(2'-5')-adenosine] | – | not cleaved | – | – | – | – | not cleaved | – | not cleaved | hydrolysis by SVPD (result in words) (SVPD; listed as ASp A): not a substrate for SVPD; hydrolysis by L cell extract / 2'-PDE (result in words) ([1]; listed as ASp A): not substrates for 2'-PDE
Nc1ncnc2c1ncn2[C@@H]1O[C@H](CO[P@@](O)(=S)O[C@@H]2[C@H](O)[C@@H](CO)O[C@H]2n2cnc3c(N)ncnc32)[C@@H](O)[C@H]1O [Compound 6A, P-Thioadenylyl-(2'-5')-adenosine] | 3 | – | – | – | – | – | not cleaved | – | not cleaved | hydrolysis by L cell extract / 2'-PDE (result in words) ([1]; listed as ARp A): not substrates for 2'-PDE
